Experimental data published in ChEMBL document CHEMBL1140285, “Synthesis and ocular effects of imidazole nitrolic acids” (2005).
Active and inactive are the calls of the source. The calls are words filed in the database; no cut-off is given here.

What was measured:
Oryctolagus cuniculus [1] = assay: Increase in nitrite concentration in aqueous humor after topical administration of compound in rabbits; control value is 1.31; assay type: functional, Aqueous humor of eyeball
Oryctolagus cuniculus [2] = assay: Maximal decrease in IOP observed with in 24 hours after intravitreal administration of the compound; NE is no effect on IOP; assay type: functional, organism-based
Oryctolagus cuniculus [3] = assay: Increase in NOx concentration in plasma after topical administration of compound in rabbits; control value is 408.59; assay type: functional
Oryctolagus cuniculus [4] = assay: Increase in nitrite concentration in plasma after topical administration of compound in rabbits; control value is 0.98; assay type: functional
Oryctolagus cuniculus [5] = assay: Increase in NOx concentration in aqueous humor after topical administration of compound in rabbits; control value is 309.09; assay type: functional, Aqueous humor of eyeball
Oryctolagus cuniculus [6] = assay: Increase in cGMP concentration in aqueous humor after topical administration of compound in rabbits; control value is 16.10; assay type: functional, Aqueous humor of eyeball
Sus scrofa [7] = assay: Increase in NOx concentration in porcineiris-ciliary body after administration of compound at the concentrations of 10 uM; control value is 0.36
Sus scrofa [8] = assay: Increase in NOx concentration in porcineiris-ciliary body after administration of compound at the concentrations of 100 uM; control value is 0.36
Sus scrofa [9] = assay: Increase in cGMP concentration in porcineiris-ciliary body after administration of compound at the concentrations of 10 uM; control value is 0.46
Sus scrofa [10] = assay: Increase in cGMP concentration in porcineiris-ciliary body after administration of compound at the concentrations of 100 uM; control value is 0.46
Sus scrofa [11] = assay: Increase in nitrite concentration in porcineiris-ciliary body after administration of compound at the concentrations of 10 uM; control value is 0.15
Sus scrofa [12] = assay: Increase in nitrite concentration in porcineiris-ciliary body after administration of compound at the concentrations of 100 uM; control value is 0.15
Oryctolagus cuniculus [13] = assay: Increase in NOx concentration in porcineiris-ciliary body after administration of compound at the concentrations of 10 uM and 100 uM; control value is 0.36; NE is no effect on IOP; assay type: functional
Oryctolagus cuniculus [14] = assay: Increase in nitrite concentration in porcineiris-ciliary body after administration of compound at the concentrations of 10 uM and 100 uM; control value is 0.15; NE is no effect on IOP; assay type: functional
Oryctolagus cuniculus [15] = assay: Maximal decrease in IOP observed with in 24 hours after intravitreal administration of the compound; NE is no effect; assay type: functional, organism-based
Oryctolagus cuniculus [16] = assay: Increase in NOx concentration in porcineiris-ciliary body after administration of compound at the concentrations of 10 uM and 100 uM; NE is no effect; assay type: functional
Oryctolagus cuniculus [17] = assay: Increase in cGMP concentration in aqueous humor after intravitreal administration of compound in rabbits; control value is 9.17; assay type: functional, Aqueous humor of eyeball
Oryctolagus cuniculus [18] = assay: Maximal decrease in IOP observed with […] after intravitreal administration of the compound at the concentration of 20 mM; assay type: functional
Oryctolagus cuniculus [19] = assay: Increase in NOx concentration in plasma after intravitreal administration of compound in rabbits; control value is 408.59; assay type: functional
Oryctolagus cuniculus [20] = assay: Increase in nitrite concentration in plasma after intravitreal administration of compound in rabbits; control value is 0.98; assay type: functional
Oryctolagus cuniculus [21] = assay: Increase in NOx concentration in aqueous humor after intravitreal administration of compound in rabbits; control value is 500.86; assay type: functional, Aqueous humor of eyeball
Oryctolagus cuniculus [22] = assay: Increase in nitrite concentration in aqueous humor after intravitreal administration of compound in rabbits; control value is 1.32; assay type: functional, Aqueous humor of eyeball
Oryctolagus cuniculus [23] = assay: Maximal decrease in IOP observed with in 24 hours after intravitreal administration of the compound;NE is no effect on IOP; assay type: functional, organism-based
Oryctolagus cuniculus [24] = assay: Increase in nitrite concentration in aqueous humor after intravitreal administration of compound in rabbits; control value is 2.40; assay type: functional, Aqueous humor of eyeball
Oryctolagus cuniculus [25] = assay: Maximal decrease in IOP observed with in 24 hours after intravitreal administration of the compound at the concentration of 20 mM; assay type: functional
Oryctolagus cuniculus [26] = assay: Increase in cGMP concentration in aqueous humor after intravitreal administration of compound in rabbits; control value is 14.31; assay type: functional, Aqueous humor of eyeball
Oryctolagus cuniculus [27] = assay: Increase in NOx concentration in porcineiris-ciliary body after administration of compound at the concentrations of 10 uM and 100 uM; control value is 0.36; assay type: functional
Oryctolagus cuniculus [28] = assay: Increase in NOx concentration in aqueous humor after intravitreal administration of compound in rabbits; control value is 450.31; assay type: functional, Aqueous humor of eyeball

Row | SMILES | Maximal decrease in IOP (Oryctolagus cuniculus [2]) | Increase in concentration (Sus scrofa [7]) [µM] | Increase in concentration (Sus scrofa [8]) [µM] | cGMP concentration (Sus scrofa [9]) [pmol/mg prot.] | cGMP concentration (Sus scrofa [10]) [pmol/mg prot.] | Increase in concentration (Sus scrofa [11]) [µM] | Increase in concentration (Sus scrofa [12]) [µM] | further results
1 | O=[N+]([O-])/C(=N\O)c1cncn1Cc1ccccc1 | No effect | 2.01 | 24.6 | 0.46 | 3.29 | 2.15 | 24.44 | Increase in concentration (Oryctolagus cuniculus [1]): 1.61 µM; Increase in concentration (Oryctolagus cuniculus [3]): 379.43 µM; Increase in concentration (Oryctolagus cuniculus [4]): 0.87 µM; Increase in concentration (Oryctolagus cuniculus [5]): 302.19 µM; Increase in concentration (Oryctolagus cuniculus [6]): 16.79 pmol/mg prot.
2 | Cn1cncc1/C(=N/O)[N+](=O)[O-] [listing 1 of 2 here] | No effect |  |  |  |  |  |  | 
3 | O/N=C/c1cncn1Cc1ccccc1 [listing 1 of 2 here] | No effect |  |  |  |  |  |  | Increase in concentration (Oryctolagus cuniculus [13]): No effect; Increase in concentration (Oryctolagus cuniculus [14]): No effect
4 | O/N=C/c1cncn1Cc1ccccc1 [listing 2 of 2 here] |  |  |  | 0.3 |  |  |  | 
5 | O=[N+]([O-])/C(=N\O)c1c[nH]c(-c2ccccc2)n1 | No effect |  |  |  |  |  |  | 
6 | O=[N+]([O-])/C(=N\O)c1ncc[nH]1 |  |  |  |  |  |  |  | Maximal decrease in IOP (Oryctolagus cuniculus [15]): inactive; Increase in concentration (Oryctolagus cuniculus [16]): inactive
7 | Cn1cncc1/C(=N/O)[N+](=O)[O-].O=[N+]([O-])O |  | 4.87 | 51.95 | 1.01 | 2.76 | 2.68 | 28.05 | Increase in concentration (Oryctolagus cuniculus [17]): 9.41 pmol/mg prot.; Maximal decrease in IOP (Oryctolagus cuniculus [18]): -4 mmHg; Increase in concentration (Oryctolagus cuniculus [19]): 425.49 µM; Increase in concentration (Oryctolagus cuniculus [20]): 0.75 µM; Increase in concentration (Oryctolagus cuniculus [21]): 524.29 µM; Increase in concentration (Oryctolagus cuniculus [22]): 10.32 µM
8 | Cn1cncc1/C(=N/O)[N+](=O)[O-] [listing 2 of 2 here] |  | 3.38 | 29.96 | 0.87 | 1.19 | 3.46 | 32.07 | 
9 | Cl.O/N=C/c1cncn1Cc1ccccc1 |  | 1.97 | 2.21 | 0.58 | 0.58 |  |  | 
10 | Cc1[nH]cnc1/C(=N/O)[N+](=O)[O-] |  | 3.06 | 30.62 | 0.6 | 1.22 | 3.62 | 31.22 | Maximal decrease in IOP (Oryctolagus cuniculus [23]): No effect
11 | O=Cc1cncn1Cc1ccccc1 | No effect |  |  | 0.3 | 0.38 |  |  | Increase in concentration (Oryctolagus cuniculus [13]): No effect; Increase in concentration (Oryctolagus cuniculus [14]): No effect
12 | Cn1cncc1C=O | No effect | 0.63 | 0.09 | 0.38 | 0.5 | 0.34 | 0.62 | 
13 | O=[N+]([O-])/C(=N\O)c1c[nH]cn1 |  |  |  | 0.51 | 0.55 | 0.18 | 0.18 | Increase in concentration (Oryctolagus cuniculus [24]): 2.49 µM; Maximal decrease in IOP (Oryctolagus cuniculus [25]): -7.3 mmHg; Increase in concentration (Oryctolagus cuniculus [19]): 469.42 µM; Increase in concentration (Oryctolagus cuniculus [20]): 1.38 µM; Increase in concentration (Oryctolagus cuniculus [26]): 21.77 pmol/mg prot.; Increase in concentration (Oryctolagus cuniculus [27]): No effect; Increase in concentration (Oryctolagus cuniculus [28]): 451.94 µM
14 | Cn1cncc1/C=N/O | No effect |  |  | 0.51 | 0.58 |  |  | Increase in concentration (Oryctolagus cuniculus [13]): No effect; Increase in concentration (Oryctolagus cuniculus [14]): No effect
